Data: PubChem BioAssay (NCI)
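The compound was tested at five concentrations on cells cultured in 96-well plates, with a 48-hour exposure period. TGI is the concentration that stops growth completely.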

Assays:
Assay in all cases: NCI tumour cell line growth inhibition, 48 h
[1] = system: A498 renal
[2] = system: HS 578T breast
[3] = system: MDA-MB-231 breast
[4] = system: SK-MEL-28 melanoma
[5] = system: LXFL 529 NSCLC
[6] = system: SNB-78 CNS
[7] = system: P388 leukemia
[8] = system: SN12K1 renal
[9] = system: DMS 114 small cell lung
[10] = system: P388/ADR leukemia

SMILES | TGI [1] [µM] | TGI [2] [µM] | TGI [3] [µM] | TGI [4] [µM] | TGI [5] [µM] | TGI [6] [µM] | TGI [7] [µM] | TGI [8] [µM] | TGI [9] [µM] | TGI [10] [µM]
O=c1oc2cc(O)ccc2c(O)c1Cc1c(O)c2ccc(O)cc2oc1=O | > 100 | > 100 | > 100 | > 100 |  |  |  |  |  | 
CCC1NC(N=Nc2ccc([N+](=O)[O-])cc2)(P(=O)(OC(C)C)OC(C)C)OC1=O (configuration not stated) | > 100 |  |  | > 100 | > 100 | > 100 |  |  |  | 
Cc1ccc2c(=O)c3ccccc3sc2c1 |  |  |  | > 100 | > 100 |  |  |  |  | 
CC1=CC2c3cccc4[nH]cc(c34)CC2N(C)C1 (configuration not stated) | > 100 |  |  | > 100 |  | > 100 | > 100 | > 31.6 | > 100 | > 73.1
O=C(O)C1CCCCN1c1ccccc1[N+](=O)[O-] (configuration not stated) |  |  |  |  | > 100 | > 100 |  |  | > 100 | 
CN(Cc1cnc2c(N)nc(N)nc2n1)c1ccc(Cl)cc1 | 98.5 | > 100 | > 100 |  |  |  |  |  |  | 
C[C@@H]1CC[C@@]2(OC1)O[C@H]1C[C@H]3[C@@H]4CC[C@H]5C[C@@H](OC6OC(CO)C(OC7OC(CO)C(O)C(OC8OCC(O)C(O)C8O)C7OC7OC(CO)C(O)C(O)C7O)C(O)C6O)[C@H](O)C[C@]5(C)[C@H]4CC[C@]3(C)[C@H]1[C@@H]2C (some centres not stated) | 29.7 | 15.9 | 6.71 | 31 |  |  |  |  |  | 
